Values joined by “and” are separate entries in the source; they are usually repeats but may differ in a detail not shown here. Identical values can stand only once. Counter-ions that a name gives are not always drawn.
Experiments:
[1] = system: PC3 human prostate cancer cells; test: WST-1 cell proliferation assay; type: cell-based
Protocol: PC3 human prostate cancer cells were routinely cultured in DMEM/F12 (Gibco NY USA) supplemented with 10% FCS (Hyclone, Utah USA) and 10,000 U/mL penicillin 10,000 μg/mL streptomycin and […] amphtenicin B (Gibco, NY USA) at 37° C. in 5% CO2.
To assess the effect on cell proliferation of BLT the colorimetric WST-1 cell proliferation assay (Roche USA) was used and manufacturer instructions followed. Briefly, 20×10^3 cells/well were seeded in 96 well plates. Cells were then treated for 24 hours with BLT at 5 μM, 10 μM, 20 μM, 50 μM, 100 μM, 200 μM, 500 μM, 1 mM, 2 mM, 5 mM and 10 mM or with matched DMSO (1.20,000 to 1.10). Subsequently cells were incubated for 4 hours with the WST-1 cell proliferation reagent and absorbance read at 440 nm using a Tecan Freedom Evo liquid handler equipped with the SAFIRE monochromator-based microplate reader (Tecan U.S., NC, USA).
Note that controls were treated with DMSO in order to clearly identify effects which are due to the compound being investigated rather than its vehicle (DMSO). FSAHA dose was based on previous findings (Butler L M, Agus D B, Scher H I, et al. Suberoylanilide hydroxamic acid, an inhibitor of histone deacetylase, suppresses the growth of prostate cancer cells in vitro and in vivo. Cancer Res 2000 September 15;60(18):5165-70).

PC3 cells [2] = test: 19F MRS of PC3 cell extracts (intracellular BLT, TFA, FSAHA); type: cell-based, human; conditions: for Intracellular BLT level: 24 h
Protocol: For MRS studies, PC3 cells were treated for 24 h with FSAHA at 2, 5, 7, 8, 9 and 10 μM in the presence of 1 mM BLT or with 1 mM BLT alone. Approximately 1×10^7-1.5×10^7 cells were then extracted using the dual phase extraction method as previously described (Chung Y L, Troy H, Banerji U, et al. Magnetic resonance spectroscopic pharmacodynamic markers of the heat shock protein 90 inhibitor 17-allylamino, 17-demethoxygeldanamycin (17AAG) in human colon cancer models. J Natl Cancer Inst 2003 November 5;95(21):1624-33, Tyagi R K, Azrad A, Degani H, Salomon Y. Simultaneous extraction of cellular lipids and water-soluble metabolites: evaluation by NMR spectroscopy. Magn Reson Med 1996 February;35(2):194-200.47). Briefly, cells were extensively rinsed with ice-cold saline to remove any residual extracellular BLT and medium. Cells were then fixed in 10 ml of ice-cold methanol, scraped off the surface of the culture flask, collected into glass tubes and vortexed. 10 ml of ice-cold chloroform was then added followed by 10 ml of ice-cold de-ionized water. Following phase separation and solvent removal the water-soluble fraction was reconstituted in 250 μl of deuterium oxide (D2O) and 250 μl of DMSO for ^19F MR measurements. To perform the ^31P MR measurement 100 μl of EDTA and 50 μl methylene diphosphonic acid (MDPA) in D2O were added to a final concentration of 10 mM and 0.35 mM respectively. The number of cells extracted was determined by counting a separate flask of cells. ^19F MR spectra of the water-soluble metabolites were recorded as above. Metabolite concentrations were determined by integration and comparison with the area of the external C6F6 reference, normalizing to cell number and correcting for saturation effects. Correction for saturation effects was achieved by also acquiring a quantitative inverse gated fully relaxed spectrum on two different samples and calculating the correction factors which need to be applied to the partially relaxed spectra. It was determined that the T1 relaxation of BLT is 1 s and that of C6F6 is 3 s. The fully relaxed spectrum was therefore acquired using a 90 deg. flip angle and a 15 s relaxation delay (5 times the longest T1). ^31P MR spectra were recorded on an Avance DRX500 Bruker spectrometer (Bruker Biospin Germany) using a 30 deg. flip angle and 3 s relaxation delay. Metabolite concentrations were determined by integration and comparison with the area of the internal MDPA reference, normalizing to cell number and correcting for saturation effects (correction factors were determined as above by acquiring a fully relaxed quantitative spectrum using a 90 deg. flip angle and a 30 s relaxation delay).
To monitor the fluorinated metabolites, the lipid phase was reconstituted in 500 μl CDCl3. To monitor the fluorinated metabolites in cellular protein, the protein pellet obtained during cell extraction was dissolved in 1 ml of 0.5 M NaOH and heated to 60° C. for 1 h. Samples were then analyzed by ^19F MRS as above.

PC3 cells [3] = test: GC-MS analysis of TFA in extracellular medium; type: cell-based, human
From the text: To assess build-up of TFA in medium, samples of extracellular medium were collected and analyzed using gas chromatography-mass spectroscopy (GC-MS). In order to be able to use standard capillary GC-MS, TFA had to be derivatized. This was done using a modification of the procedure of Scott et al. (Scott B F, Mactavish D, Spencer C, Strachan W M J, Muir D C G. Haloacetic acids in Canadian lake waters and precipitation. Environmental Science & Technology 2000;34:4266-72) as follows. One ml of sample, or TFA standard in medium, was treated with 20 mg NaCl, 60 μL HCl, and 30 μl each of 100 mM 1,3-dicyclohexylcarbohiimide (Sigma-Aldrich Chemical Co., MO. USA) and 2,4-difluoroaniline (Sigma-Aldrich Chemical Co., MO. USA) and adjusted to a final volume of 1.320 ml in ethyl acetate. Mixture was vortexed for 60 minutes at room temperature; an additional 50 mg of NaCl added and sample briefly vortexed. Following phase separation the organic layer was removed and stored. The aqueous phase was further extracted twice with 200 μl of ethyl acetate. All three ethyl acetate extracts were combined and treated with 50 μl 3M HCl and 50 μL saturated anhydrous sodium sulfate (Na2SO4), vortexed and another 20 mg of Na2SO4 added and mixed. The organic phase was then evaporated to dryness under a dry nitrogen gas stream. The residue was dissolved in 250 μL of toluene and transferred into sample vials for analysis. Three microliters of sample extract were analyzed using an Agilent 6890N GC coupled to 5973N MSD in splitless injection mode. TFA was resolved using a Supleco Omegawax 250 capillary column (30 m×0.25 mm). Column temperature was 100° C. for one minute, ramping to 230° C. at 25° C. per minute and then held at 230° C. for two minutes. Detection was performed in EI positive mode monitoring the m/z 225 ion.

[4] = PC3 cells, 10 μM FSAHA in the presence of 1 mM BLT
[5] = PC3 control cells, 1 mM BLT alone

## O=C(CCCCCCC(=O)Nc1ccc(F)cc1)NO [FSAHA, 4-Fluorosuberanilohydroxamic acid]
[1]; 2 μM
  Cell proliferation relative to control: 87±5%
[1]; 2 μM in the presence of 1 mM BLT
  Cell proliferation relative to control: 86±1%
[1]; 5 μM
  Cell proliferation relative to control: 79±3%
[1]; 5 μM in the presence of 1 mM BLT
  Cell proliferation relative to control: 77±7%
[1]; 10 μM
  Cell proliferation relative to control: 66±6%
[1]; 10 μM in the presence of 1 mM BLT
  Cell proliferation relative to control: 63±2%
PC3 cells [2]; 10 μM FSAHA-treated PC3 cells
  Average increase of intracellular BLT: 18 fmol/cell
PC3 cells [2]; [4]
  Intracellular TFA concentration: 1±1 fmol/cell
  Intracellular BLT level: 32±4 fmol/cell and 32 fmol/cell
PC3 cells [3]; 10 μM FSAHA-treated PC3 cells
  Average lowering of TFA in medium compared to controls: 1.6 µg/mL
PC3 cells [3]; [4]
  Level of TFA in cellular growth medium: 3.4 ± 0.7 µg/mL
PC3 cells [3]; assuming all TFA from BLT cleavage is removed into the medium, 10 μM FSAHA
  Lowering of TFA in medium calculated from the BLT increase: 1.3 µg/mL

## CC(C)(C)OC(=O)N[C@@H](CCCCNC(=O)C(F)(F)F)C(=O)O [BLT, Boc-Lys-TFA-OH]
[1]; 5 μM to 10 mM, 24 hours
  Effect on cell proliferation compared to matched DMSO controls: did not significantly affect cell proliferation
[1]; Homo sapiens, PC-3, 24-hour treatment with 1 mM BLT, read-out: Cell numbers, % of controls
  activity at 1000 µM: 95 ± 4%
PC3 cells [2]; PC3 cells, 1 mM BLT alone (control cells)
  Intracellular BLT level: 14±4 fmol/cell and 14 fmol/cell
PC3 cells [2]; [5]
  Intracellular TFA concentration: 1.1±0.6 fmol/cell
PC3 cells [3]; [5]
  Level of TFA in cellular growth medium: 5 ± 0.4 µg/mL
